This experiment deals with T1, SOS1 (Homo sapiens, UniProt Q07889).
T1 construct: comprising amino acid residues 564-1049 corresponding to the catalytic domain; purchased Reaction Biology Corp. SOS1-Strep #MSC-11-502; GST-KRAS G12C #MSC-11-538
T1 sequence (Q07889 564-1049): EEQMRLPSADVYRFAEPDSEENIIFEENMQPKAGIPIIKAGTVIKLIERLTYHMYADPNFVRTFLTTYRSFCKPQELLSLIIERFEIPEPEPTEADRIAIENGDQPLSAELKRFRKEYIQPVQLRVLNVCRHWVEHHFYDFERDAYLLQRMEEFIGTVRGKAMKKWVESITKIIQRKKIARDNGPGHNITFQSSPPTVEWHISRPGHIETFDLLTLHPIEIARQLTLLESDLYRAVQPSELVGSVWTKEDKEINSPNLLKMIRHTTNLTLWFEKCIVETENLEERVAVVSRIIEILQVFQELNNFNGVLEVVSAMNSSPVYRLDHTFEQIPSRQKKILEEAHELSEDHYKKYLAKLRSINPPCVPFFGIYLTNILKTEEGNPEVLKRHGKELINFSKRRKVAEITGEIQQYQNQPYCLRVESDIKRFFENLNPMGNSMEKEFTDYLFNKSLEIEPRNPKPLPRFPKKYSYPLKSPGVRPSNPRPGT
Kind of experiment: Inhibitory activity on SOS1-mediated GTP exchange (HTRF / TR-FRET nucleotide exchange assay on KRAS G12C). To be noted: SOS1-mediated GTP exchange on GST-KRAS G12C (residues 2-169); SOS1-Strep catalytic domain (564-1049); GTP-DY-647P1; HTRF signal; 5-point concentration series up to 1,000 nM. In kind it is biochemical. Here is the method: To evaluate whether the SOS1-mediated nucleotide exchange activity on KRAS G12C is inhibited by the compounds of the above Examples, a homogeneous time-resolved fluorescence (homogenous time-resolved fluorescence, HTRF) assay was performed using GST-KRAS G12C (#MSC-11-538) and SOS1-Strep (#MSC-11-502) obtained from Reaction Biology Corp. (USA, MA). The activity of SOS1 was determined by measuring the amount of GTP bound to the KRAS G12C protein based on the principle of time-resolved fluorescence resonance energy transfer (time-resolved fluorescence energy transfer, TR-FRET). Terbium (Terbium) conjugated to an anti-GST antibody bound to the GST tag of the GST-KRAS G12C protein served as a FRET donor, and GTP bound to the KRAS G12C protein was labeled with the fluorophore DY-647P1, serving as a FRET acceptor. Based on this principle, a higher HTRF or FRET signal is observed as more GTP is bound to KRAS G12C due to the SOS1-mediated exchange reaction in the assay.
In summary, a GST-labeled KRAS G12C protein (comprising amino acid residues 2-169), a […] SOS1 protein (comprising amino acid residues 564-1049 corresponding to the catalytic domain), an anti-GST antibody, labeled nucleotide GTP-DY-647P1, and the test compound were mixed in a buffer solution containing 20 mM HEPES (pH 7.4), 150 mM NaCl, 5 mM MgCl2, 1 mM dithiothreitol (DTT), 0.05% BSA, and 0.0025% NP40. The mixture was dispensed into a 384-well plate, incubated at room temperature, and the HTRF signal was measured using a PHERAstar microplate reader (BMG Labtech). The excitation wavelength was 337 nm, and emission was measured at 620/665 nm. A background signal value was determined from fluorescence measurements obtained in the absence of SOS1 protein and was subtracted from all measured HTRF values. A control value was determined from fluorescence measurements obtained in the absence of the synthesized compounds and was set as the 100% reference. Fluorescence signals were measured at compound concentrations of 0.1, 1, 10, 100, and 1,000 nM (5 points, 10-fold) or 1.6, 8, 40, 200, and 1,000 nM (5 points, 5-fold). The 50% inhibitory concentration (IC50) values of the compounds were calculated using GraphPad Prism.
IC50 values were denoted as +++ when 50 nM or less, ++ when greater than 50 nM and 100 nM or less, and + when greater than 100 nM.
(In general: Time-resolved FRET reads energy transfer from a long-lived donor to a nearby acceptor.)

We go through 22 compounds from patent publication EP4786455A1, “NOVEL PHTHALAZINE DERIVATIVE COMPOUND AS SOS1 INHIBITOR, AND USE THEREOF” (Hanmi Pharmaceutical Co., Ltd., priority 2023, dated 2025).

By IC50 is commonly meant the concentration that inhibits the measured activity by half. High values mean weaker potency in that assay, low ones greater potency in that assay.

Structures are written as SMILES.

Turning to `CNc1cc2c(N[C@H](C)c3cccc(C#N)c3C)nnc(C)c2cc1C(=O)N1CCOCC1` [Example 1, (R)-2-methyl-3-(1-((4-methyl-7-(methylamino)-6-(morpholine-4-carbonyl)phthalazin-1-yl)amino)ethyl)benzonitrile], the IC50 was at most 50 nM. The compound `CNc1cc2c(N[C@H](C)c3cccc(C#N)c3C)nnc(C)c2cc1C(=O)N1CCSCC1` [Example 2, (R)-2-methyl-3-(1-((4-methyl-7-(methylamino)-6-(thiomorpholine-4-carbonyl)phthalazin-1-yl)amino)ethyl)benzonitrile] showed an IC50 of at most 50 nM. Consider `CNc1cc2c(N[C@H](C)c3cccc(C#N)c3C)nnc(C)c2cc1C(=O)N1CCSC1` [Example 3, (R)-2-methyl-3-(1-((4-methyl-7-(methylamino)-6-(thiazolidine-3-carbonyl)phthalazin-1-yl)amino)ethyl)benzonitrile], for which the IC50 is at most 50 nM. `CNc1cc2c(N[C@H](C)c3cccc(C#N)c3C)nnc(C)c2cc1C(=O)N1CCS(=O)(=O)CC1` [Example 4, (R)-3-(1-((6-(1,1-dioxothiomorpholine-4-carbonyl)-4-methyl-7-(methylamino)phthalazin-1-yl)amino)ethyl)-2-methylbenzonitrile] displayed an IC50 of at most 50 nM. `CNc1cc2c(N[C@H](C)c3cccc(C#N)c3C)nnc(C)c2cc1C(=O)NC1CCOCC1` [Example 5, (R)-1-((1-(3-cyano-2-methylphenyl)ethyl)amino)-4-methyl-7-(methylamino)-N-(tetrahydro-2H-pyran-4-yl)phthalazine-6-carboxamide]: the IC50 was at most 50 nM.

As to `CNc1cc2c(N[C@H](C)c3cccc(C#N)c3C)nnc(C)c2cc1C(=O)N(C)C1CCOCC1` [Example 6, (R)-1-((1-(3-cyano-2-methylphenyl)ethyl)amino)-N,4-dimethyl-7-(methylamino)-N-(tetrahydro-2H-pyran-4-yl)phthalazine-6-carboxamide], the IC50 is at most 50 nM. The compound `CNc1cc2c(N[C@H](C)c3cccc(C#N)c3C)nnc(C)c2cc1C(=O)N1CC2COCC2C1` (stereo partly drawn) [Example 7, 3-((1R)-1-((6-(hexahydro-1H-furo[3,4-c]pyrrole-5-carbonyl)-4-methyl-7-(methylamino)phthalazin-1-yl)amino)ethyl)-2-methylbenzonitrile] came in with an IC50 of at most 50 nM. As for `CNc1cc2c(N[C@H](C)c3cccc(C#N)c3C)nnc(C)c2cc1C(=O)N1CCN(C)CC1` [Example 8, (R)-2-methyl-3-(1-((4-methyl-7-(methylamino)-6-(4-methylpiperazine-1-carbonyl)phthalazin-1-yl)amino)ethyl)benzonitrile], the IC50 was at most 50 nM. As for `CNc1cc2c(N[C@H](C)c3cccc(C#N)c3C)nnc(C)c2cc1C(=O)N1CCNCC1` [Example 9, (R)-2-methyl-3-(1-((4-methyl-7-(methylamino)-6-(piperazine-1-carbonyl)phthalazin-1-yl)amino)ethyl)benzonitrile], the IC50 is at most 50 nM. Compound `CNc1cc2c(N[C@H](C)c3cccc(C#N)c3C)nnc(C)c2cc1C(=O)N1CCC(F)(F)CC1` [Example 10, (R)-3-(1-((6-(4,4-difluoropiperidin-1-carbonyl)-4-methyl-7-(methylamino)phthalazin-1-yl)amino)ethyl)-2-methylbenzonitrile] had an IC50 of at most 50 nM.

On to `CNc1cc2c(N[C@H](C)c3cccc(C#N)c3C)nnc(C)c2cc1C(=O)N1CC2(COC2)C1` [Example 11, (R)-2-methyl-3-(1-((4-methyl-7-(methylamino)-6-(2-oxa-6-azaspiro[3.3]heptane-6-carbonyl)phthalazin-1-yl)amino)ethyl)benzonitrile], for which the IC50 is at most 50 nM. In turn, `CCN1CCN(C(=O)c2cc3c(C)nnc(N[C@H](C)c4cccc(C#N)c4C)c3cc2NC)CC1` [Example 12, (R)-3-(1-((6-(4-ethylpiperazine-1-carbonyl)-4-methyl-7-(methylamino)phthalazin-1-yl)amino)ethyl)-2-methylbenzonitrile] displayed an IC50 of at most 50 nM.

`CNc1cc2c(N[C@H](C)c3cccc(C#N)c3C)nnc(C)c2cc1C(=O)N1CCN(C2CC2)CC1` [Example 13, (R)-3-(1-((6-(4-cyclopropylpiperazine-1-carbonyl)-4-methyl-7-(methylamino)phthalazin-1-yl)amino)ethyl)-2-methylbenzonitrile] gave an IC50 of at most 50 nM.

On to `CNc1cc2c(N[C@H](C)c3cccc(C#N)c3C)nnc(C)c2cc1C(=O)N1CCCC1` [Example 14, (R)-2-methyl-3-(1-((4-methyl-7-(methylamino)-6-(pyrrolidine-1-carbonyl)phthalazin-1-yl)amino)ethyl)benzonitrile], for which the IC50 was at most 50 nM. In turn, `CNc1cc2c(N[C@H](C)c3cccc(C#N)c3C)nnc(C)c2cc1C(=O)N1CCCCC1` [Example 15, (R)-2-methyl-3-(1-((4-methyl-7-(methylamino)-6-(piperidine-1-carbonyl)phthalazin-1-yl)amino)ethyl)benzonitrile] showed an IC50 of at most 50 nM. Consider `CNc1cc2c(N[C@H](C)c3cccc(C#N)c3C)nnc(C)c2cc1C(=O)N1CCC1` [Example 16, (R)-3-(1-((6-(azetidine-1-carbonyl)-4-methyl-7-(methylamino)phthalazin-1-yl)amino)ethyl)-2-methylbenzonitrile], for which the IC50 is at most 50 nM. `CNc1cc2c(N[C@H](C)c3cccc(C#N)c3C)nnc(C)c2cc1C(=O)N1CC(F)C1` [Example 17, (R)-3-(1-((6-(3-fluoroazetidine-1-carbonyl)-4-methyl-7-(methylamino)phthalazin-1-yl)amino)ethyl)-2-methylbenzonitrile] came in with an IC50 of at most 50 nM.

Compound `CNc1cc2c(N[C@H](C)c3cccc(C#N)c3C)nnc(C)c2cc1C(=O)N1CCC2(CC2)C1` [Example 18, (R)-2-methyl-3-(1-((4-methyl-7-(methylamino)-6-(5-azaspiro[2.4]heptane-5-carbonyl)phthalazin-1-yl)amino)ethyl)benzonitrile] yielded an IC50 of at most 50 nM. Take `CNc1cc2c(N[C@H](C)c3cccc(C#N)c3C)nnc(C)c2cc1C(=O)N1CC2CC1CO2` (stereo partly drawn) [Example 19, 3-((1R)-1-((6-(2-oxa-5-azabicyclo[2.2.1]heptane-5-carbonyl)-4-methyl-7-(methylamino)phthalazin-1-yl)amino)ethyl)-2-methylbenzonitrile]: the IC50 is at most 50 nM. Consider `CNc1cc2c(N[C@H](C)c3cccc(C#N)c3C)nnc(C)c2cc1C(=O)N1CCN(C2CCCCC2)CC1` [Example 20, (R)-3-(1-((6-(4-cyclohexylpiperazine-1-carbonyl)-4-methyl-7-(methylamino)phthalazin-1-yl)amino)ethyl)-2-methylbenzonitrile], for which the IC50 is at most 50 nM. Compound `CNc1cc2c(N[C@H](C)c3cccc(C#N)c3C)nnc(C)c2cc1C(=O)N1CCN(C(C)C)CC1` [Example 21, (R)-3-(1-((6-(4-isopropylpiperazine-1-carbonyl)-4-methyl-7-(methylamino)phthalazin-1-yl)amino)ethyl)-2-methylbenzonitrile] yielded an IC50 of at most 50 nM. Regarding `CNc1cc2c(N[C@H](C)c3cccc(C#N)c3C)nnc(C)c2cc1C(=O)N1CCC(N2CCOCC2)CC1` [Example 22, (R)-2-methyl-3-(1-((4-methyl-7-(methylamino)-6-(4-morpholinopiperidin-1-carbonyl)phthalazin-1-yl)amino)ethyl)benzonitrile], the IC50 is at most 50 nM.
